Laboratory results reported in ChEMBL document CHEMBL1129758, “Rapid synthesis of novel dipeptide inhibitors of human collagenase and gelatinase using solid phase chemistry” (Bioorg Med Chem Lett, 1996).
pIC50: −log10 of the molar value. Where a name gives a salt, the structure may show the parent alone. *1 amine or outer side, *2 acyl side, *3 side chain or, on linkers, in order; H or OH if unused. Where a SMILES comes first, the peptide text is derived from it. [ ]: non-standard residue; d: D form. The star is where a group is joined. Hydrocinnamoyl = O=C(CCc1ccccc1)*; 3Pal = N[C@@H](Cc1cccnc1)C(=O)O; 2Thi = N[C@@H](Cc1cccs1)C(=O)O; CO = O=C([*:1])[*:2]; Tfa = O=C(C(F)(F)F)*; NHPh = c1ccc(N*)cc1

Legend:
[1] = biological target: T1, Interstitial collagenase (Homo sapiens, UniProt P03956); assay: Inhibitory activity against human fibroblast collagenase (MMP-1)
T1 sequence (P03956 whole entry): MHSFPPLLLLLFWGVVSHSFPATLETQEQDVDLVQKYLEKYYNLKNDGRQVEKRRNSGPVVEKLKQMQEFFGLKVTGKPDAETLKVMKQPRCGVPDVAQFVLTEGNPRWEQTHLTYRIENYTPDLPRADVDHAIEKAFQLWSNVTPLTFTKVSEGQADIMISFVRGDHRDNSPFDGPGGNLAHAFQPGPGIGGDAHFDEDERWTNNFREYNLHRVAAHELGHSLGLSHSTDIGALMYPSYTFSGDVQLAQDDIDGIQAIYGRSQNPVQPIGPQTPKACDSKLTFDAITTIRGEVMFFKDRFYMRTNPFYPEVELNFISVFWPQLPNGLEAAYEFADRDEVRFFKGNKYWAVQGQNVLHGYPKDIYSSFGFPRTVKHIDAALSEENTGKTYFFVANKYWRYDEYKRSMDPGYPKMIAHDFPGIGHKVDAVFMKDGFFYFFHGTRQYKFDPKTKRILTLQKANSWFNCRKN

[2] = biological target: Matrix metalloproteinase-9 (Homo sapiens, UniProt P14780); assay: Compound was tested for its inhibitory activity against 92 kD gelatinase (MMP-9)
Chain of Matrix metalloproteinase-9 (P14780 whole entry): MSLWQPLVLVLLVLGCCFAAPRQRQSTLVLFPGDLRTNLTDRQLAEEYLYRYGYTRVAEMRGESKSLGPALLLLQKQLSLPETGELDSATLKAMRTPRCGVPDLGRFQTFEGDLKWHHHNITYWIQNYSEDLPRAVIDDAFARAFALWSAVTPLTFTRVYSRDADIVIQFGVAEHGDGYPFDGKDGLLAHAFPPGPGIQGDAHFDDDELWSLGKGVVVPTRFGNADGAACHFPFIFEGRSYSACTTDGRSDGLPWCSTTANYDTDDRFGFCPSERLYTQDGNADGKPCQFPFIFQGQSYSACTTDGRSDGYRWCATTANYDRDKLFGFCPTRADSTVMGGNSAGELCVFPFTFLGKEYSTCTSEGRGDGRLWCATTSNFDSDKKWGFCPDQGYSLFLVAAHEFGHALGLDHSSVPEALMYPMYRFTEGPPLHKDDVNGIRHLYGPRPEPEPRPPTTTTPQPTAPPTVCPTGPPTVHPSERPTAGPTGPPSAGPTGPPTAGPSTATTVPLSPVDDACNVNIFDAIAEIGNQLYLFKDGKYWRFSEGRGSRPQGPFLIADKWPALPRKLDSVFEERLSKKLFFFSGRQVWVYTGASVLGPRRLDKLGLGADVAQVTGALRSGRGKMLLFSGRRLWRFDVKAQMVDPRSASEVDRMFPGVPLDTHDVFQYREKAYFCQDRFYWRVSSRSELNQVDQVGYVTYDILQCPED

Row | SMILES | pIC50 [1] | pIC50 [2]
1 | NC(=O)[C@H](Cc1ccccc1)NC(=O)[C@H](CS)NC(=O)Nc1ccccc1 ({NHPh-CO}-Cys-Phe-NH2) | 7.40 | 7.96
2 | NC(=O)[C@H](Cc1cccnc1)NC(=O)[C@H](CC(=O)O)NC(=O)c1ccc2[nH]nnc2c1 | 6.34 | 
3 | NC(=O)[C@H](Cc1ccccc1)NC(=O)[C@H](CS)NC(=O)COc1ccccc1 | 6.22 | 7.47
4 | NC(=O)[C@H](Cc1cccnc1)NC(=O)[C@H](CS)NC(=O)c1ccc2[nH]nnc2c1 | 7.92 | 7.38
5 | NC(=O)[C@H](Cc1ccccc1)NC(=O)[C@H](CS)NC(=O)c1ccc2[nH]nnc2c1 | 8.10 | 7.62
6 | CC(=O)N[C@@H](CS)C(=O)N[C@@H](Cc1cccnc1)C(N)=O (Ac-Cys-[3Pal]-NH2) | 5.40 | 
7 | NC(=O)[C@H](Cc1cccnc1)NC(=O)[C@H](CS)NC(=O)c1cn[nH]c1 | 7.59 | 7.15
8 | CC(=O)N[C@@H](CS)C(=O)N[C@@H](Cc1cccs1)C(N)=O (Ac-Cys-[2Thi]-NH2) | 5.40 | 
9 | NC(=O)[C@H](Cc1ccccc1)NC(=O)[C@H](CS)NC(=O)c1ccc(=O)[nH]c1 | 7.08 | 7.39
10 | CN(C)c1ccc(C(=O)N[C@@H](CS)C(=O)N[C@@H](Cc2ccccc2)C(N)=O)cc1 | 6.83 | 7.10
11 | NC(=O)[C@H](Cc1cccs1)NC(=O)[C@H](CS)NC(=O)c1ccc2nn[nH]c2c1 | 7.47 | 6.99
12 | CC(=O)N[C@@H](CS)C(=O)N[C@@H](Cc1ccccc1)C(N)=O (Ac-Cys-Phe-NH2) | < 4.00 | 
13 | NC(=O)[C@H](Cc1ccccc1)NC(=O)[C@H](CS)NC(=O)c1ccsc1 | 6.89 | 7.09
14 | NC(=O)[C@H](Cc1ccccc1)NC(=O)[C@H](CS)NC(=O)C(F)(F)F (Tfa-Cys-Phe-NH2) | 7.40 | < 6.00
15 | NC(=O)[C@H](Cc1ccccc1)NC(=O)[C@H](CS)NC(=O)c1ccoc1 | 6.77 | 7.08
16 | NC(=O)[C@H](Cc1ccccc1)NC(=O)[C@H](CS)NC(=O)c1cccs1 | 6.98 | 7.31
17 | CC(=O)N[C@@H](CS)C(=O)N[C@@H](Cc1c[nH]c2ccccc12)C(N)=O (Ac-Cys-Trp-NH2) | 5.30 | 
18 | NC(=O)[C@H](Cc1ccccc1)NC(=O)[C@H](CS)NC(=O)c1ccncc1 | 7.03 | 7.39
19 | NC(=O)[C@H](Cc1ccccc1)NC(=O)[C@H](CS)NC(=O)c1ccc2c(c1)OCO2 | 6.67 | 7.72
20 | CC(=O)N[C@@H](CS)C(=O)N[C@H](C(N)=O)C(C)C (Ac-Cys-Val-NH2) | 5.15 | 
21 | NC(=O)[C@H](Cc1ccccc1)NC(=O)[C@H](CS)NC(=O)CCc1ccccc1 (Hydrocinnamoyl-Cys-Phe-NH2) | 5.46 | 7.42
22 | NC(=O)[C@H](Cc1ccccc1)NC(=O)[C@H](CS)NC(=O)c1ccc(-c2ccccc2)cc1 | 6.37 | 7.68
23 | NC(=O)[C@H](Cc1ccccc1)NC(=O)[C@H](CS)NC(=O)c1cn[nH]c1 | 7.59 | 7.15
24 | NC(=O)[C@H](Cc1ccccc1)NC(=O)[C@H](CS)NC(=O)c1ccc(-n2cccc2)nc1 | 6.60 | 7.82
25 | COC(=O)[C@H](Cc1ccccc1)NC(=O)[C@H](CS)NC(=O)C(F)(F)F (Tfa-Cys-Phe-OMe) | 7.20 | < 6.00
